Results: ChEMBL document CHEMBL1146927, “Semi-synthetic preparation of the rare, cytotoxic, deep-sea sourced sponge metabolites discorhabdins P and U” (Bioorg Med Chem Lett, 2006)
Values after ≈ are worked out from the molar mass of the structure shown.

Key:
Bacillus subtilis = assay: Zone of Bacillus subtilis inhibition at 30 ug; format: functional
P388 = assay: Antiproliferative activity against murine P388D1 cell line; format: functional, cell-based; details: Mus musculus
Escherichia coli = assay: Zone of Escherichia coli inhibition at 30 ug; format: functional

`CSC1=CC(=O)C(Br)=C[C@]12C=CNC1=C2C2=NCCc3c[nH]c(c32)C1=O` showed an inhibition zone (IZ) (Bacillus subtilis) of 3 mm, an IC50 (P388) of 0.081 µg/mL (≈ 0.189 µM) and an inhibition zone (IZ) (Escherichia coli) of 0 mm.

`O=C1C=C(SC(=O)c2ccccc2)[C@@]2(C=CNC3=C2C2=NCCc4cn(C(=O)c5ccccc5)c(c42)C3=O)C=C1Br` showed an inhibition zone (IZ) (Bacillus subtilis) of 0 mm, an IC50 (P388) of 0.918 µg/mL (≈ 1.47 µM) and an inhibition zone (IZ) (Escherichia coli) of 0 mm.

For `O=C1C=C2S[C@H]3C[C@]2(C=C1Br)C1=C(N3)C(=O)c2[nH]cc3c2C1=NCC3` [(+)-DISCORHABDIN B], the inhibition zone (IZ) (Bacillus subtilis) was 6 mm, the IC50 (P388) was 0.044 µg/mL (≈ 0.106 µM) and the inhibition zone (IZ) (Escherichia coli) was 1 mm.

`O=C1C(Br)=CC2(C=C1Br)CCNC1=C2C2=NCCc3c[nH]c(c32)C1=O` [DISCORHABDIN C] was tested, and the inhibition zone (IZ) (Bacillus subtilis) was 8 mm, the IC50 (P388) was 0.062 µg/mL (≈ 0.134 µM) and the inhibition zone (IZ) (Escherichia coli) was 1 mm.

Compound `CSC1=CC(=O)C(Br)=C[C@]12C=CNC1=C2C2=NCCc3cn(C)c(c32)C1=O` [DISCORHABDIN U] has an inhibition zone (IZ) (Bacillus subtilis) of 3 mm, an IC50 (P388) of 0.089 µg/mL (≈ 0.201 µM) and an inhibition zone (IZ) (Escherichia coli) of 0 mm.

`Cn1cc2c3c1C(=O)C1=C(C3=NCC2)C2(C=C(Br)C(=O)C(Br)=C2)CCN1` [DISCORHABDIN] showed an inhibition zone (IZ) (Bacillus subtilis) of 8 mm, an IC50 (P388) of 0.182 µg/mL (≈ 0.381 µM) and an inhibition zone (IZ) (Escherichia coli) of 0 mm.
